Patent US9409866B2, “Pyridine-2-amides useful as CB2 agonists” (Hoffmann-La Roche Inc., priority 2012, dated 2016)
Like-named read-outs stand apart in the source and are kept apart here.

What was measured:
human CB1 receptors = human CB1 receptors (Homo sapiens (Human), UniProt P21554); test: functional cAMP assay, CHO cells expressing human CB1; format: cell-based; settings: functional cAMP assay, CHO cells expressing human CB1
Method: (§1) CHO cells expressing human CB1 or CB2 receptors are seeded 17-24 hours prior to the experiment 50.000 cells per well in a black 96 well plate with flat clear bottom (Corning Costar #3904) in DMEM (Invitrogen No. 31331), 1×HT supplement, with 10% fetal calf serum and incubated at 5% CO2 and 37° C. in a humidified incubator. The growth medium was exchanged with Krebs Ringer Bicarbonate buffer with 1 mM IBMX and incubated at 30° C. for 30 min. Compounds were added to a final assay volume of 100 μl and incubated for 30 min at 30° C. Using the cAMP-Nano-TRF detection kit the assay (Roche Diagnostics) was stopped by the addition of 50 μl lysis reagent (Tris, NaCl, 1.5% Triton X100, 2.5% NP40, 10% NaN3) and 50 μl detection solutions (20 μM mAb Alexa700-cAMP 1:1, and 48 μM Ruthenium-2-AHA-cAMP) and shaken for 2 h at room temperature. The time-resolved energy transfer is measured by a TRF reader (Evotec Technologies GmbH), equipped with a ND:YAG laser as excitation source. The plate is measured twice with the excitation at 355 nm and at the emission with a delay of 100 ns and a gate of 100 ns, total exposure time 10 s at 730 (bandwidth 30 nm) or 645 nm (bandwidth 75 nm), respectively. The FRET signal is calculated as follows: FRET=T730-Alexa730-P(T645-B645) with P=Ru730-B730/Ru645-B645, where T730 is the test well measured at 730 nM, T645 is the test well measured at 645 nm, B730 and B645 are the buffer controls at 730 nm and 645 nm, respectively. cAMP content is determined from the function of a standard curve spanning from 10 μM to 0.13 nM cAMP.
(§2) EC50 values were determined using Activity Base analysis (ID Business Solution, Limited). The EC50 values for a wide range of cannabinoid agonists generated from this assay were in agreement with the values published in the scientific literature.

human CB2 receptors = human CB2 receptors (Homo sapiens (Human), UniProt P34972); test: functional cAMP assay, CHO cells expressing human CB2; format: cell-based; settings: Human CB2 EC50 (uM)
Method: as §1, §2

human CB2 receptors, sequence (P34972 whole entry): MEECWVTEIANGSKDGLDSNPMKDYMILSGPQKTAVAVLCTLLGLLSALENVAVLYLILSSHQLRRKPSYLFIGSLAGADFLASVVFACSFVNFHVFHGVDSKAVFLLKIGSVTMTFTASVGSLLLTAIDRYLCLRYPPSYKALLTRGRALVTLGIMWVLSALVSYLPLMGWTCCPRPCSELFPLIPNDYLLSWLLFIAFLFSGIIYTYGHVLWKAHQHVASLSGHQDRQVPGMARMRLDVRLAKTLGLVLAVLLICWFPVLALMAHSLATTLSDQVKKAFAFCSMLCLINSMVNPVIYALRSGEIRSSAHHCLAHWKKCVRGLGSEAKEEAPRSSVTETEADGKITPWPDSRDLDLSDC
human CB1 receptors, sequence (P21554 whole entry): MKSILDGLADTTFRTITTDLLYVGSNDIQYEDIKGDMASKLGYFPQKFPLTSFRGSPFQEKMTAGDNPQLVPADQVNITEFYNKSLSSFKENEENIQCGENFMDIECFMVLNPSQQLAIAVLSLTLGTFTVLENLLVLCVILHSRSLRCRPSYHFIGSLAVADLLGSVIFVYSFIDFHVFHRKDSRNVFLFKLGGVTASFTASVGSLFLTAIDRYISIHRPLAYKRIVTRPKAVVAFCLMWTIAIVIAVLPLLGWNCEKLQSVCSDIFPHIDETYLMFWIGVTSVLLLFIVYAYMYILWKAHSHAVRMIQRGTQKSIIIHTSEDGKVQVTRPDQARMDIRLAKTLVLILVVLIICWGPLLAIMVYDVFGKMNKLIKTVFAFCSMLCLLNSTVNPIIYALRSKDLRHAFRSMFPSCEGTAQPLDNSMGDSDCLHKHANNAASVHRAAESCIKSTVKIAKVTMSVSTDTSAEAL

For `Cc1nc(C(C)(CO)NC(=O)c2cc(OCC(F)(F)F)c(C3CC3)cn2)no1` (single isomer, unassigned) [Example 140, 5-cyclopropyl-N-[1-hydroxy-2-(5-methyl-1,2,4-oxadiazol-3-yl)propan-2-yl]-4-(2,2,2-trifluoroethoxy)pyridine-2-carboxamide], which EC50 (human CB1 receptors; Human CB1 EC50 (uM)) is on record?
Its EC50 is greater than 10 µM.

And the EC50 (human CB2 receptors)?
The EC50 was 0.511 µM.

`Cc1nc(C(C)(CO)NC(=O)c2cc(OCC(F)(F)F)c(C3CC3)cn2)no1` (single isomer, unassigned) [Example 141, 5-cyclopropyl-N-[1-hydroxy-2-(5-methyl-1,2,4-oxadiazol-3-yl)propan-2-yl]-4-(2,2,2-trifluoroethoxy)pyridine-2-carboxamide] was tested. Which EC50 (human CB1 receptors; read-out: Human CB1 EC50) did it give?
The EC50 was greater than 10 µM.

And the EC50 (human CB2 receptors)?
The EC50 was 0.0968 µM.

For `Cc1nc(C(C)(CC2CC2)NC(=O)c2cc(OCC(F)F)c(C3CC3)cn2)no1` (single isomer, unassigned) [Example 154, 5-cyclopropyl-N-[1-cyclopropyl-2-(5-methyl-1,2,4-oxadiazol-3-yl)propan-2-yl]-4-(2,2-difluoroethoxy)pyridine-2-carboxamide], which EC50 (human CB1 receptors; Human CB1 EC50 (uM)) is on record?
Its EC50 is greater than 10 µM.

And the EC50 (human CB2 receptors)?
The EC50 was 0.0037 µM.

Which results are given for `Cc1nc(C(C)(CC2CC2)NC(=O)c2cc(OCC(F)F)c(C3CC3)cn2)no1` (single isomer, unassigned) [Example 155, 5-cyclopropyl-N-[1-cyclopropyl-2-(5-methyl-1,2,4-oxadiazol-3-yl)propan-2-yl]-4-(2,2-difluoroethoxy)pyridine-2-carboxamide]?
EC50 (human CB1 receptors; read-out: Human CB1 EC50): > 10 µM; EC50 (human CB2 receptors): 0.0058 µM

How did the EC50 (human CB1 receptors; Human CB1 EC50 (uM)) turn out when `Cc1nc(C(C)(CC2CC2)NC(=O)c2cc(OCCF)c(C3CC3)cn2)no1` (single isomer, unassigned) [Example 156, 5-cyclopropyl-N-[1-cyclopropyl-2-(5-methyl-1,2,4-oxadiazol-3-yl)propan-2-yl]-4-(2-fluoroethoxy)pyridine-2-carboxamide] was run?
Its EC50 is greater than 10 µM.

And the EC50 (human CB2 receptors)?
The EC50 was 0.0047 µM.

`Cc1nc(C(C)(CC2CC2)NC(=O)c2cc(OCCF)c(C3CC3)cn2)no1` (single isomer, unassigned) [Example 157, 5-cyclopropyl-N-[1-cyclopropyl-2-(5-methyl-1,2,4-oxadiazol-3-yl)propan-2-yl]-4-(2-fluoroethoxy)pyridine-2-carboxamide] was tested. Which EC50 (human CB1 receptors; read-out: Human CB1 EC50) did it give?
The EC50 was greater than 10 µM.

And the EC50 (human CB2 receptors)?
Its EC50 is 0.0036 µM.

What does the source list for `Cc1nc(C(C)(NC(=O)c2cc(OCC(F)(F)F)c(C3(F)COC3)cn2)C2CC2)no1` (single isomer, unassigned) [Example 166, N-[1-cyclopropyl-1-(5-methyl-1,2,4-oxadiazol-3-yl)ethyl]-5-(3-fluorooxetan-3-yl)-4-(2,2,2-trifluoroethoxy)pyridine-2-carboxamide]?
EC50 (human CB1 receptors; Human CB1 EC50 (uM)): > 10 µM; EC50 (human CB2 receptors): 0.31 µM

Which results are given for `Cc1nc(C(C)(NC(=O)c2cc(OCC(F)(F)F)c(C3(F)COC3)cn2)C2CC2)no1` (single isomer, unassigned) [Example 167, N-[1-cyclopropyl-1-(5-methyl-1,2,4-oxadiazol-3-yl)ethyl]-5-(3-fluorooxetan-3-yl)-4-(2,2,2-trifluoroethoxy)pyridine-2-carboxamide]?
EC50 (human CB1 receptors; read-out: Human CB1 EC50): > 10 µM; EC50 (human CB2 receptors): 0.0281 µM

For `Cc1nnc(C(NC(=O)c2cc(OCC(F)(F)F)c(C3CC3)cn2)C(C)(C)C)o1` (single isomer, unassigned) [Example 178, 5-cyclopropyl-N-[2,2-dimethyl-1-(5-methyl-1,3,4-oxadiazol-2-yl)propyl]-4-(2,2,2-trifluoroethoxy)pyridine-2-carboxamide], which EC50 (human CB1 receptors; Human CB1 EC50 (uM)) is on record?
Its EC50 is greater than 10 µM.

And the EC50 (human CB2 receptors)?
The EC50 was 0.0105 µM.

Which results are given for `Cc1nnc(C(NC(=O)c2cc(OCC(F)(F)F)c(C3CC3)cn2)C(C)(C)C)o1` (single isomer, unassigned) [Example 179, 5-cyclopropyl-N-[2,2-dimethyl-1-(5-methyl-1,3,4-oxadiazol-2-yl)propyl]-4-(2,2,2-trifluoroethoxy)pyridine-2-carboxamide]?
EC50 (human CB1 receptors; read-out: Human CB1 EC50): > 10 µM; EC50 (human CB2 receptors): 0.0351 µM

For `Cc1nnc(C(C)(CC2CC2)NC(=O)c2cc(OCC(F)(F)F)c(C3CC3)cn2)o1` (single isomer, unassigned) [Example 184, 5-cyclopropyl-N-[1-cyclopropyl-2-(5-methyl-1,3,4-oxadiazol-2-yl)propan-2-yl]-4-(2,2,2-trifluoroethoxy)pyridine-2-carboxamide], which EC50 (human CB1 receptors; Human CB1 EC50 (uM)) is on record?
Its EC50 is greater than 10 µM.

What about the EC50 (human CB2 receptors) of the same molecule?
Its EC50 is 0.0856 µM.

For `Cc1nnc(C(C)(CC2CC2)NC(=O)c2cc(OCC(F)(F)F)c(C3CC3)cn2)o1` (single isomer, unassigned) [Example 185, 5-cyclopropyl-N-[1-cyclopropyl-2-(5-methyl-1,3,4-oxadiazol-2-yl)propan-2-yl]-4-(2,2,2-trifluoroethoxy)pyridine-2-carboxamide], which EC50 (human CB1 receptors; read-out: Human CB1 EC50) is on record?
Its EC50 is greater than 10 µM.

What about the EC50 (human CB2 receptors) of the same molecule?
The EC50 was 0.0302 µM.

Which EC50 (human CB1 receptors; Human CB1 EC50 (uM)) does the source give for `CNC(=O)C(C)(NC(=O)c1cc(OCC(F)(F)F)c(C2CC2)cn1)c1noc(C)n1` (single isomer, unassigned) [Example 187, 5-cyclopropyl-N-[1-(methylamino)-2-(5-methyl-1,2,4-oxadiazol-3-yl)-1-oxopropan-2-yl]-4-(2,2,2-trifluoroethoxy)pyridine-2-carboxamide] here?
Its EC50 is greater than 10 µM.

What about the EC50 (human CB2 receptors) of the same molecule?
The EC50 was 0.416 µM.

With `CNC(=O)C(C)(NC(=O)c1cc(OCC(F)(F)F)c(C2CC2)cn1)c1noc(C)n1` (single isomer, unassigned) [Example 188, 5-cyclopropyl-N-[1-(methylamino)-2-(5-methyl-1,2,4-oxadiazol-3-yl)-1-oxopropan-2-yl]-4-(2,2,2-trifluoroethoxy)pyridine-2-carboxamide] as the molecule, how does the EC50 (human CB1 receptors; read-out: Human CB1 EC50) read?
Its EC50 is greater than 10 µM.

What about the EC50 (human CB2 receptors) of the same molecule?
The EC50 was 0.0206 µM.

Which results are given for `Cn1nnnc1C(NC(=O)c1cc(OCC(F)(F)F)c(C2CC2)cn1)C(C)(C)C` (single isomer, unassigned) [Example 205, 5-cyclopropyl-N-[2,2-dimethyl-1-(1-methyltetrazol-5-yl)propyl]-4-(2,2,2-trifluoroethoxy)pyridine-2-carboxamide]?
EC50 (human CB1 receptors; Human CB1 EC50 (uM)): > 10 µM; EC50 (human CB2 receptors): 0.108 µM

Which EC50 (human CB1 receptors; read-out: Human CB1 EC50) does the source give for `Cn1nnnc1C(NC(=O)c1cc(OCC(F)(F)F)c(C2CC2)cn1)C(C)(C)C` (single isomer, unassigned) [Example 206, 5-cyclopropyl-N-[2,2-dimethyl-1-(1-methyltetrazol-5-yl)propyl]-4-(2,2,2-trifluoroethoxy)pyridine-2-carboxamide] here?
Its EC50 is greater than 10 µM.

What about the EC50 (human CB2 receptors) of the same molecule?
Its EC50 is 0.0393 µM.

Which EC50 (human CB1 receptors; Human CB1 EC50 (uM)) does the source give for `CC(CC1CC1)(NC(=O)c1cc(OCC(F)(F)F)c(C2CC2)cn1)c1noc(N)n1` (single isomer, unassigned) [Example 207, N-[2-(5-amino-1,2,4-oxadiazol-3-yl)-1-cyclopropylpropan-2-yl]-5-cyclopropyl-4-(2,2,2-trifluoroethoxy)pyridine-2-carboxamide] here?
The EC50 was greater than 10 µM.

And the EC50 (human CB2 receptors)?
The EC50 was 0.0083 µM.

What does the source list for `CC(CC1CC1)(NC(=O)c1cc(OCC(F)(F)F)c(C2CC2)cn1)c1noc(N)n1` (single isomer, unassigned) [Example 208, N-[2-(5-amino-1,2,4-oxadiazol-3-yl)-1-cyclopropylpropan-2-yl]-5-cyclopropyl-4-(2,2,2-trifluoroethoxy)pyridine-2-carboxamide]?
EC50 (human CB1 receptors; read-out: Human CB1 EC50): > 10 µM; EC50 (human CB2 receptors): 0.0092 µM

For `Cn1nnc(C(NC(=O)c2cc(OCC(F)(F)F)c(C3CC3)cn2)C(C)(C)C)n1` (single isomer, unassigned) [Example 209, 5-cyclopropyl-N-[2,2-dimethyl-1-(2-methyltetrazol-5-yl)propyl]-4-(2,2,2-trifluoroethoxy)pyridine-2-carboxamide], which EC50 (human CB1 receptors; Human CB1 EC50 (uM)) is on record?
Its EC50 is greater than 10 µM.

What about the EC50 (human CB2 receptors) of the same molecule?
The EC50 was 0.0048 µM.

With `Cn1nnc(C(NC(=O)c2cc(OCC(F)(F)F)c(C3CC3)cn2)C(C)(C)C)n1` (single isomer, unassigned) [Example 210, 5-cyclopropyl-N-[2,2-dimethyl-1-(2-methyltetrazol-5-yl)propyl]-4-(2,2,2-trifluoroethoxy)pyridine-2-carboxamide] as the molecule, how does the EC50 (human CB1 receptors; read-out: Human CB1 EC50) read?
Its EC50 is greater than 10 µM.

And the EC50 (human CB2 receptors)?
The EC50 was 0.0042 µM.

How did the EC50 (human CB1 receptors; Human CB1 EC50 (uM)) turn out when `Cc1nc(C(NC(=O)c2cc(OCC(F)(F)F)c(C3CC3)cn2)C(C)(C)C)no1` (single isomer, unassigned) [Example 211, 5-cyclopropyl-N-[2,2-dimethyl-1-(5-methyl-1,2,4-oxadiazol-3-yl)propyl]-4-(2,2,2-trifluoroethoxy)pyridine-2-carboxamide] was run?
Its EC50 is greater than 10 µM.

And the EC50 (human CB2 receptors)?
The EC50 was 0.0048 µM.

`Cc1nc(C(NC(=O)c2cc(OCC(F)(F)F)c(C3CC3)cn2)C(C)(C)C)no1` (single isomer, unassigned) [Example 212, 5-cyclopropyl-N-[2,2-dimethyl-1-(5-methyl-1,2,4-oxadiazol-3-yl)propyl]-4-(2,2,2-trifluoroethoxy)pyridine-2-carboxamide] was tested. Which EC50 (human CB1 receptors; read-out: Human CB1 EC50) did it give?
Its EC50 is greater than 10 µM.

What about the EC50 (human CB2 receptors) of the same molecule?
The EC50 was 0.005 µM.

Which EC50 (human CB1 receptors; Human CB1 EC50 (uM)) does the source give for `CNC(=O)C(NC(=O)c1cc(OCC(F)(F)F)c(C2CC2)cn1)C(C)(C)C` (single isomer, unassigned) [Example 224, 5-cyclopropyl-N-[3,3-dimethyl-1-(methylamino)-1-oxobutan-2-yl]-4-(2,2,2-trifluoroethoxy)pyridine-2-carboxamide] here?
Its EC50 is greater than 10 µM.

And the EC50 (human CB2 receptors)?
Its EC50 is 0.0573 µM.
